Legend:
PTGER2 (EP2) = PTGER2 (EP2) (Homo sapiens (Human), UniProt P43116); test: hEP2 b-arrestin assay (PathHunter HEK 293 PTGER2 b-arrestin cells); format: cell-based; conditions: antagonistic activity, beta-arrestin assay; read-out: hEP2 b-arr IC50
Experimental: Plate is pre-incubated 15 minutes at 37° C. Then five microliters of PGE2 (final conc. 5 μM) are transferred into the assay plate. Plate is incubated 120 minutes at 37° C.
(each concentration is measured in duplicate)

PTGER4 (EP4) = PTGER4 (EP4) (Homo sapiens (Human), UniProt P35408); test: cell-based
Chain of PTGER4 (EP4) (P35408 whole entry): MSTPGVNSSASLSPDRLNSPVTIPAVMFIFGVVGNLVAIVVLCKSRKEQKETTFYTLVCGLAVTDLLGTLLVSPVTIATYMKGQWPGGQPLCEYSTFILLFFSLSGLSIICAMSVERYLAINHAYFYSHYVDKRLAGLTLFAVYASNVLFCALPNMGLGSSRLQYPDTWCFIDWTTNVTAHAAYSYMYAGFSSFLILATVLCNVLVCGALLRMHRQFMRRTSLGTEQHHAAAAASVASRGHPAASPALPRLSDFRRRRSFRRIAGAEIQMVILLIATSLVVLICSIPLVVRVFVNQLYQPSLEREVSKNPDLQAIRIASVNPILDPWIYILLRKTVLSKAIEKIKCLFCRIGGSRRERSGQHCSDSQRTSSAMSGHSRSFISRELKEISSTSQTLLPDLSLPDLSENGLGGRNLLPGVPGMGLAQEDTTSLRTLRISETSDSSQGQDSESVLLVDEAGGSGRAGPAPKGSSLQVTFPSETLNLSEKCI

Chain of PTGER2 (EP2) (P43116 whole entry): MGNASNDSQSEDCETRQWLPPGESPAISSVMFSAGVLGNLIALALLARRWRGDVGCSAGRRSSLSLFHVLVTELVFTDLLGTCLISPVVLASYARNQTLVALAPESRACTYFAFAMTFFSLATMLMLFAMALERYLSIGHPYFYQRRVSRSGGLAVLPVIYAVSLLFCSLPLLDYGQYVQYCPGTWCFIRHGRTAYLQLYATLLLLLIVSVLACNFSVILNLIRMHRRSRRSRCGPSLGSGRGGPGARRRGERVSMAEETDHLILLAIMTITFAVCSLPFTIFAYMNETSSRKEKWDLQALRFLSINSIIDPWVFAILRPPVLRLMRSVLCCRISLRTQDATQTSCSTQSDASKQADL

Row | IC50 (PTGER2 (EP2)) [µM] | IC50 (PTGER4 (EP4)) [µM] | Structure (SMILES)
1 | 0.02 | 0.04 | CCOc1cc2c(cc1CCNc1cc(-c3ccc(CC(=O)O)c(CC(C)C)c3)ncn1)OCCO2 [Example 412, (4-{6-[2-(7-Ethoxy-2,3-dihydro-benzo[1,4]dioxin-6-yl)-ethylamino]-pyrimidin-4-yl}-2-isobutyl-phenyl)-acetic acid]
2 | 0.059 | 0.136 | CCCc1cc(-c2cc(NCCc3cc4c(cc3OCC)OCCO4)ncn2)ccc1C(C)C(=O)O (racemic) [Example 487, rac-2-(4-{6-[2-(7-Ethoxy-2,3-dihydro-benzo[1,4]dioxin-6-yl)-ethylamino]-pyrimidin-4-yl}-2-propyl-phenyl)-propionic acid]
3 | 0.231 | 0.257 | CCc1cc(-c2cc(NCCc3cc4c(cc3OC)OCCO4)ncn2)ccc1CC(=O)O [Example 524, (2-Ethyl-4-{6-[2-(7-methoxy-2,3-dihydro-benzo[1,4]dioxin-6-yl)-ethylamino]-pyrimidin-4-yl}-phenyl)-acetic acid]
4 | 0.023 | 0.93 | CCOc1cc2c(cc1CCNc1cc(-c3ccc(C(=O)O)c(CC)c3)ncn1)OCCO2 [Example 516, 4-{6-[2-(7-Ethoxy-2,3-dihydro-benzo[1,4]dioxin-6-yl)-ethylamino]-pyrimidin-4-yl}-2-ethyl-benzoic acid]
5 | 0.02 | 0.087 | COc1cc2c(c(C)c1CCNc1cc(-c3ccc(C(=O)O)c(OC(C)C)c3)ncn1)OCCO2 [Example 432, 2-Isopropoxy-4-{6-[2-(7-methoxy-5-methyl-2,3-dihydro-benzo[1,4]dioxin-6-yl)-ethylamino]-pyrimidin-4-yl}-benzoic acid]
6 | 0.002 | 0.044 | COc1cc2c(c(C)c1CCNc1cc(-c3ccc(C(=O)O)c(SC)c3)ncn1)OCCO2 [Example 400, 4-{6-[2-(7-Methoxy-5-methyl-2,3-dihydro-benzo[1,4]dioxin-6-yl)-ethylamino]-pyrimidin-4-yl}-2-methylsulfanyl-benzoic acid]
7 | 0.328 | 0.063 | CCCc1cc(-c2cc(NCCc3ccc4sccc4c3)ncn2)ccc1C(C)C(=O)O (racemic) [Example 481, rac-2-{4-[6-(2-Benzo[b]thiophen-5-yl-ethylamino)-pyrimidin-4-yl]-2-propyl-phenyl}-propionic acid]
8 | 0.019 | 0.262 | Cc1c(CCNc2cc(-c3ccc(C(=O)O)c(OC4CC4)c3)ncn2)ccc2c1OCCO2 [Example 519, 2-Cyclopropoxy-4-{6-[2-(5-methyl-2,3-dihydro-benzo[1,4]dioxin-6-yl)-ethylamino]-pyrimidin-4-yl}-benzoic acid]
9 | 0.158 | 0.347 | CCc1cc(-c2cc(NCCc3ccc4c(c3C)OCCO4)ncn2)ccc1CC(=O)O [Example 513, (2-Ethyl-4-{6-[2-(5-methyl-2,3-dihydro-benzo[1,4]dioxin-6-yl)-ethylamino]-pyrimidin-4-yl}-phenyl)-acetic acid]
10 | 0.17 | 0.209 | COc1cc(-c2cc(NCCc3ccc4c(c3C)OCCO4)ncn2)ccc1OCCC(=O)O [Example 507, 3-(2-Methoxy-4-{6-[2-(5-methyl-2,3-dihydro-benzo[1,4]dioxin-6-yl)-ethylamino]-pyrimidin-4-yl}-phenoxy)-propionic acid]
11 | 0.17 | 0.207 | CCCOc1cc(-c2cc(NCCc3cc4c(cc3OC)OCCO4)ncn2)ccc1CC(=O)O [Example 480, (4-{6-[2-(7-Methoxy-2,3-dihydro-benzo[1,4]dioxin-6-yl)-ethylamino]-pyrimidin-4-yl}-2-propoxy-phenyl)-acetic acid]
12 | 0.155 | 0.166 | CCCOc1cc(-c2cc(NCCc3ccc4sccc4c3F)ncn2)ccc1CC(=O)O [Example 393, (4-{6-[2-(4-Fluoro-benzo[b]thiophen-5-yl)-ethylamino]-pyrimidin-4-yl}-2-propoxy-phenyl)-acetic acid]
13 | 0.01 | 0.03 | CCOc1cc(-c2cc(NCCc3c(OC)cc4c(c3C)OCCO4)ncn2)ccc1CC(=O)O [Example 399, (2-Ethoxy-4-{6-[2-(7-methoxy-5-methyl-2,3-dihydro-benzo[1,4]dioxin-6-yl)-ethylamino]-pyrimidin-4-yl}-phenyl)-acetic acid]
14 | 0.103 | 0.903 | CCOc1cc(-c2cc(NCCc3cc(F)c4scc(Cl)c4c3)ncn2)ccc1CC(=O)O [Example 502, (4-{6-[2-(3-Chloro-7-fluoro-benzo[b]thiophen-5-yl)-ethylamino]-pyrimidin-4-yl}-2-ethoxy-phenyl)-acetic acid]
15 | 0.642 | 0.497 | COc1cc2c(cc1CCNc1cc(-c3ccc(C(=O)O)c(OC(C)C)c3)ncn1)OCCO2 [Example 493, 2-Isopropoxy-4-{6-[2-(7-methoxy-2,3-dihydro-benzo[1,4]dioxin-6-yl)-ethylamino]-pyrimidin-4-yl}-benzoic acid]

More lines, now with the values behind:

Row | Structure (SMILES) | IC50 (PTGER2 (EP2)) [µM] | IC50 (PTGER4 (EP4)) [µM]
16 | COc1cc2ccccc2c(C)c1CCNc1cc(-c2ccc(C(=O)O)c(OC3CC3)c2)ncn1 [Example 448, 2-Cyclopropoxy-4-{6-[2-(3-methoxy-1-methyl-naphthalen-2-yl)-ethylamino]-pyrimidin-4-yl}-benzoic acid] | 0.015 | 0.046
17 | Fc1cc(CCNc2cc(-c3ccc4[nH]ccc4c3)ncn2)cc2ccsc12 [Example 539, [2-(7-Fluoro-benzo[b]thiophen-5-yl)-ethyl]-[6-(1H-indol-5-yl)-pyrimidin-4-yl]amine] | 0.452 | 0.225
18 | Cc1cc(-c2cc(NCCc3cc(F)c4sccc4c3)ncn2)ccc1C(=O)O [Example 555, 4-{6-[2-(7-Fluoro-benzo[b]thiophen-5-yl)-ethylamino]-pyrimidin-4-yl}-2-methyl-benzoic acid] | 0.887 | 0.835
19 | O=C(O)c1ccc(-c2cc(NCCc3cc(F)c4sccc4c3)ncn2)cc1F [Example 554, 2-Fluoro-4-{6-[2-(7-fluoro-benzo[b]thiophen-5-yl)-ethylamino]-pyrimidin-4-yl}-benzoic acid] | 0.739 | 0.884
20 | O=C(O)Cc1ccc(-c2cc(NCCc3ccc4scc(Cl)c4c3)ncn2)cc1OC(F)(F)F [Example 499, (4-{6-[2-(3-Chloro-benzo[b]thiophen-5-yl)-ethylamino]-pyrimidin-4-yl}-2-trifluoromethoxy-phenyl)-acetic acid] | 0.18 | 0.169
21 | O=C(O)c1ccc(-c2cc(NCCc3cc(F)c4sccc4c3)ncn2)cc1O [Example 563, 4-{6-[2-(7-Fluoro-benzo[b]thiophen-5-yl)-ethylamino]-pyrimidin-4-yl}-2-hydroxy-benzoic acid] | 0.985 | 0.582
22 | CCCc1cc(-c2cc(NCCc3cc(F)c4sccc4c3)ncn2)ccc1C(=O)NC [Example 458, 4-{6-[2-(7-Fluoro-benzo[b]thiophen-5-yl)-ethylamino]-pyrimidin-4-yl}-N-methyl-2-propyl-benzamide] | 0.55 | 0.104
23 | O=C(O)c1n[nH]c2cc(-c3cc(NCCc4cc(F)c5sccc5c4)ncn3)ccc12 [Example 562, 6-{6-[2-(7-Fluoro-benzo[b]thiophen-5-yl)-ethylamino]-pyrimidin-4-yl}-1H-indazole-3-carboxylic acid] | 0.803 | 0.689
24 | CC(C)Oc1cc(-c2cc(NCCc3ccc4sccc4c3F)ncn2)ccc1CC(=O)O [Example 424, (4-{6-[2-(4-Fluoro-benzo[b]thiophen-5-yl)-ethylamino]-pyrimidin-4-yl}-2-isopropoxy-phenyl)-acetic acid] | 0.424 | 0.08
25 | O=C(O)c1ccc(-c2cc(NCCc3ccc4sccc4c3F)ncn2)cc1OC1CCC1 [Example 366, 2-Cyclobutoxy-4-{6-[2-(4-fluoro-benzo[b]thiophen-5-yl)-ethylamino]-pyrimidin-4-yl}-benzoic acid] | 0.084 | 0.119
26 | COc1cc(-c2cc(NCCc3ccc4sccc4c3F)ncn2)ccc1OCCC(=O)O [Example 437, 3-(4-{6-[2-(4-Fluoro-benzo[b]thiophen-5-yl)-ethylamino]-pyrimidin-4-yl}-2-methoxy-phenoxy)-propionic acid] | 0.104 | 0.041
27 | COc1cc(-c2cc(NCCc3cc(F)c4sccc4c3)ncn2)ccc1C(=O)O [Example 497, 4-{6-[2-(7-Fluoro-benzo[b]thiophen-5-yl)-ethylamino]-pyrimidin-4-yl}-2-methoxy-benzoic acid] | 0.449 | 0.443
28 | O=C(O)Cc1ccc(-c2cc(NCCc3cc(F)c4sccc4c3)ncn2)cc1OC(F)F [Example 540, (2-Difluoromethoxy-4-{6-[2-(7-fluoro-benzo[b]thiophen-5-yl)-ethylamino]-pyrimidin-4-yl}-phenyl)-acetic acid] | 0.339 | 0.146
29 | CCCc1cc(-c2cc(NCCc3ccc4scc(Cl)c4c3)ncn2)ccc1CC(=O)O [Example 498, (4-{6-[2-(3-Chloro-benzo[b]thiophen-5-yl)-ethylamino]-pyrimidin-4-yl}-2-propyl-phenyl)-acetic acid] | 0.163 | 0.107
30 | COc1cc2sccc2cc1CCNc1cc(-c2ccc(CC(=O)O)c(OC)c2)ncn1 [Example 381, (2-Methoxy-4-{6-[2-(6-methoxy-benzo[b]thiophen-5-yl)-ethylamino]-pyrimidin-4-yl}-phenyl)-acetic acid] | 0.051 | 0.126
31 | CC(C)Cc1cc(-c2cc(NCCc3ccc4sccc4c3F)ncn2)ccc1CC(=O)O [Example 409, (4-{6-[2-(4-Fluoro-benzo[b]thiophen-5-yl)-ethylamino]-pyrimidin-4-yl}-2-isobutyl-phenyl)-acetic acid] | 0.26 | 0.057
32 | Cc1cc(-c2cc(NCCc3cc(F)c4sccc4c3)ncn2)cc(C)c1O [Example 532, 4-{6-[2-(7-Fluoro-benzo[b]thiophen-5-yl)-ethylamino]-pyrimidin-4-yl}-2,6-dimethyl-phenol] | 0.293 | 0.069
